Numbered stars: 1 amine (or outer) side, 2 acyl side, 3 side chain; on linkers, the order of the positions; unused ones are H or OH. Bridge positions count the residues as written; N and C are the ends. Square brackets hold non-standard residues; d marks the D form. Peptide text beside a SMILES is read from it. Pro(4S-SH) = O=C([C@@H]1C[C@H](S[*:3])CN1[*:1])[*:2]; Trp(6-Cl) = N[C@@H](Cc1c[nH]c2cc(Cl)ccc12)C(=O)O; Oic = O=C(O)[C@@H]1C[C@@H]2CCCC[C@@H]2N1; Gly(octyl) = CCCCCCCC[C@H](N)C(=O)O; Cha = N[C@@H](CC1CCCCC1)C(=O)O; Orn = NCCC[C@H](N)C(=O)O
What was measured:
[1] = in vitro; type: cell-based; settings: human
Protocol: (§1) The cytotoxicity of the peptides to HELA cells (Acc57) and COS-7 cells (CRL-1651) was determined using the MTT reduction assay. Briefly, the method was as follows: 7000 HELA cells/well and 4500 COS-7 cells/well were seeded and grown in 96-well microtiter plates for 24 h at 37° C. at 5% CO2. Thereafter, time zero (Tz) was determined by MTT reduction (see below). The supernatant of the remaining wells was discarded, and fresh medium and compounds in serial dilutions (12.5, 25 and 50 μM, triplicates) were pipetted into the wells. After incubation of the cells for 48 h at 37° C. at 5% CO2 the supernatant was discarded again and 100 μL MTT reagent (0.5 mg/mL in RPMI1640 and DMEM, respectively)/well was added. Following incubation at 37° C. for 2 h the media were aspirated and the cells were spiked (100 μl isopropanol/well). The absorbance of the solubilized formazan was measured at 595 nm (OD595peptide). For each concentration averages were calculated from triplicates. The percentage of growth was calculated as follows: (OD595peptide-OD595Tz-OD595Empty well)/(OD595Tz-OD595Empty well)×100%. The GI50 (Growth Inhibition) concentrations were calculated for each peptide by using a trend line function for the concentrations (50, 25, 12.5 and 0 μM), the corresponding percentages and the value 50, (=TREND (C50:C0,%50:%0,50).

[2] = Plasma stability, mouse plasma; type: in vitro ADME; settings: 37° C., sampled up to 240 min
Protocol: (§2) The stability of the peptides in human and mouse plasma was determined by applying the following method: 315 μl/deep well of freshly thawed human plasma (Basler Blutspende-dienst) and mouse plasma (Harlan Sera-Lab, UK), respectively, were spiked with 35 μl/well of compound in PBS (100 μM, triplicate) and incubated at 37° C. At t=0, 15, 30, 60, 120 and 240 min aliquots of 50 μl were transferred to filtration plate wells containing 150 μl/well of acetonitrile. Following shaking for 2 min the occurred suspensions were filtrated by vacuum and finally. 100 μl of each filtrate were transferred to a propylene microtiter plate, and analyzed by LC/MS as follows: Column: Waters, XBridge C18, mobile phases: (A) water+0.1% formic acid and (B) acetonitrile/water, 95/5 (v/v)+0.1% formic acid, gradient: 5%-100% (B) in 2 minutes, electrospray ionization, MRM detection (triple quadrupole). The peak areas were determined and triplicate values were averaged. The stability was expressed in percent of the initial value at t=0. (tx/t0×100). By using the TREND function of EXCEL (Microsoft Office 2003) T1/2 were determined.

[3] = tested on: human red blood cells (hRBC); type: cell-based; settings: red cells of human, 1 h
Protocol: The peptides were tested for their hemolytic activity against human red blood cells (hRBC). Fresh hRBC were washed three times with phosphate buffered saline (PBS) and centrifuged for 10 min at 2000×g. Compounds (100 μM) were incubated with 20% hRBC (v/v) for 1 h at 37° C. The final erythrocyte concentration was approximately 0.9×10^9 cells/mL. A value of 0% and 100% cell lyses, respectively, was determined by incubation of hRBC in the presence of PBS alone and 0.1% Triton X-100 in H2O, respectively. The samples were centrifuged, the supernatants were 20-fold diluted in PBS buffer and the optical densities (OD) were measured at 540 nm. The 100% lyses value (OD540H2O) gave an OD540 of approximately 1.3-1.8. Percent hemolysis was calculated as follows: […]

[4] = Plasma stability, human plasma; type: in vitro ADME; settings: 37° C., sampled up to 240 min
Protocol: as §2

[5] = in vitro; type: cell-based; settings: African green monkey
Protocol: as §1

[6] = target: T1, human UTR2 receptor (human, UniProt Q9UKP6 1-389); assay: cell-based or functional assay
T1 sequence (looked up): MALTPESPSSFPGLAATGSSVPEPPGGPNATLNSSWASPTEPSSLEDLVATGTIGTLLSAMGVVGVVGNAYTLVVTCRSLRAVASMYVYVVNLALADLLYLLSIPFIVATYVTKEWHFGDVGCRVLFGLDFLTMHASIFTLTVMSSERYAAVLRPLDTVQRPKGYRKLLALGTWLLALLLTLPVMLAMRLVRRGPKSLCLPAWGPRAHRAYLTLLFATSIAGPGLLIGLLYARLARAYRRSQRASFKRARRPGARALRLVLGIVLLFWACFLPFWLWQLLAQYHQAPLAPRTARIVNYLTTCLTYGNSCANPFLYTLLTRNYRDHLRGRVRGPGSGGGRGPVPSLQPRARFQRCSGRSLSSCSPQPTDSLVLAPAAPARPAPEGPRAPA

[7] = target: T2, NCoA-1 (UniProt Q15788 257-385, limits assumed); assay: competition fluorescence polarization; displacement of FluoSTAT6 from NCoA-1
T2 construct: also called SRC-1
T2 sequence (looked up): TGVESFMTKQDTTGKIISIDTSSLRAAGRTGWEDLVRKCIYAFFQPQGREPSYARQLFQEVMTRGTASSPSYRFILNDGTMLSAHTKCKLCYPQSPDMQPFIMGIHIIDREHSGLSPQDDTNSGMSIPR
Protocol: The mixtures were shaken thoroughly. Fluorescence polarization was measured on a SPECTRAmax M5 spectrometer (Molecular device) following 5-30 min incubation at room temperature. FluoSTAT6 was excited at 490 nm and emission polarization was detected at 525 nm. 40 intensity measurements were collected for each well, 20 at horizontal position of the dynamic polarizer, 20 at parallel position. As the fraction of FluoSTAT6 bound to NCoA-1 is correlated to the fluorescence polarization (FP), after normalization, the fraction of bound FluoSTAT6 (B) was determined, and the KD was calculated according to B=[(1+P/R+KD/R)−((1+P/R+KD/R)²−4P/R)^{0.5}]/2, wherein P is the total probe concentration, R the total protein concentration and KD the dissociation constant (M. H. Roehrl, J. Y. Wang, G. Wagner, Biochemistry 2004, 3, 16056).
To determine the Kᵢ values of potential inhibitors of the STAT6/NCoA-1 interaction (competition fluorescence polarization) the compounds (dilution series from 0 to 100 μM final concentration) dissolved in HEPES buffer (10 mM HEPES, 150 mM NaCl, 3.4 mM EDTA, 0.1% BSA) were dispensed in a black 96 well plate (Greiner) and FluoSTAT6 (200 nM final concentration) in HEPES buffer was added. The mixture was completed by a HEPES buffer solution of NCoA-1 (1 μM final concentration) and processed as described above. STAT6Y (C-terminal tyrosine extended STAT6 794-814 peptide) was used as a positive control. As the total fluorescence intensity of FluoSTAT6 remains similar for all samples, the fraction of peptide bound to NCoA-1 is correlated to the fluorescence polarization.
Following normalization data were fitted with IGORpro Software® (WaveMetrics, Lake Oswego, Oreg., USA) to a sigmoid equation to determine IC₅₀ values.

**Q.** What does the source list for CC(C)[C@@H]1NC(=O)[C@@H]2CSSC[C@H](NC(=O)[C@H](CC(=O)O)NC(=O)[C@@H]3CCCN3C(=O)[C@H]3CCCN3C1=O)C(=O)N[C@@H](Cc1ccccc1)C(=O)N[C@H](Cc1c[nH]c3ccccc13)C(=O)N[C@@H](CCCN)C(=O)N[C@@H](Cc1ccc(O)cc1)C(=O)N2 [compound 32] (cyclo(DCF[dW][Orn]YCV[dP]P); disulfide 2-7)?
**A.** GI50 at 48 h [1]: > 50 µM; Plasmastability mouse pl. T1/2 [2]: 4 h; Hemolysis at 100 μM [%] [3]: 0%; Plasmastability human pl. T1/2 [4]: 4 h; GI50 at 48 h [5]: > 50 µM

**Q.** What does the source list for NCCCC[C@@H]1NC(=O)[C@H](Cc2c[nH]c3ccccc23)NC(=O)[C@H](Cc2ccccc2)NC(=O)[C@@H]2CSSC[C@H](NC(=O)[C@H](Cc3ccc(O)cc3)NC1=O)C(=O)N[C@@H](CC1CCCCC1)C(=O)N1CCC[C@@H]1C(=O)N1CCC[C@H]1C(=O)N[C@@H](CC(=O)O)C(=O)N2 [compound 35] (cyclo(DCFWKYC[Cha][dP]P); disulfide 2-7)?
**A.** GI50 at 48 h [1]: > 50 µM; Plasmastability mouse pl. T1/2 [2]: 4 h; Hemolysis at 100 μM [%] [3]: 0%; Plasmastability human pl. T1/2 [4]: 4 h; GI50 at 48 h [5]: > 50 µM

B1: Ex. 28 (peptide)
peptide: cyclo(DCFWKYCL[dS]P)
modifications: disulfide 2-7
SMILES: CC(C)C[C@@H]1NC(=O)[C@@H]2CSSC[C@H](NC(=O)[C@H](CC(=O)O)NC(=O)[C@@H]3CCCN3C(=O)[C@@H](CO)NC1=O)C(=O)N[C@@H](Cc1ccccc1)C(=O)N[C@@H](Cc1c[nH]c3ccccc13)C(=O)N[C@@H](CCCCN)C(=O)N[C@@H](Cc1ccc(O)cc1)C(=O)N2
**Q.** With B1 as the molecule, how does the “EC50% (Ca2+ assay, agonist activity)” value [6] read?
**A.** Its value is < 0.002 µM.

B2: Ex. 1 (peptide)
peptide: cyclo(FE[Trp(6-Cl)]LAWEF[dP]P)
SMILES: CC(C)C[C@@H]1NC(=O)[C@H](Cc2c[nH]c3cc(Cl)ccc23)NC(=O)[C@H](CCC(=O)O)NC(=O)[C@H](Cc2ccccc2)NC(=O)[C@@H]2CCCN2C(=O)[C@H]2CCCN2C(=O)[C@H](Cc2ccccc2)NC(=O)[C@H](CCC(=O)O)NC(=O)[C@H](Cc2c[nH]c3ccccc23)NC(=O)[C@H](C)NC1=O
notes: cyclo(-P1..P8-template-)
**Q.** For B2, which Ki [7] is on record?
**A.** Its Ki is 0.7 µM.

B3: Ex. 5 (peptide)
peptide: cyclo(FT[Trp(6-Cl)]LAWEF[dP][Pro(4S-SH)])
SMILES: CC(C)C[C@@H]1NC(=O)[C@H](Cc2c[nH]c3cc(Cl)ccc23)NC(=O)[C@H]([C@@H](C)O)NC(=O)[C@H](Cc2ccccc2)NC(=O)[C@@H]2C[C@H](S)CN2C(=O)[C@H]2CCCN2C(=O)[C@H](Cc2ccccc2)NC(=O)[C@H](CCC(=O)O)NC(=O)[C@H](Cc2c[nH]c3ccccc23)NC(=O)[C@H](C)NC1=O
notes: cyclo(-P1..P8-template-)
**Q.** With B3 as the molecule, how does the Ki [7] read?
**A.** The Ki was 3.8 µM.

B4: Ex. 25 (peptide)
peptide: cyclo([Cha]EWLAWEF[dP]P)
SMILES: CC(C)C[C@@H]1NC(=O)[C@H](Cc2c[nH]c3ccccc23)NC(=O)[C@H](CCC(=O)O)NC(=O)[C@H](CC2CCCCC2)NC(=O)[C@@H]2CCCN2C(=O)[C@H]2CCCN2C(=O)[C@H](Cc2ccccc2)NC(=O)[C@H](CCC(=O)O)NC(=O)[C@H](Cc2c[nH]c3ccccc23)NC(=O)[C@H](C)NC1=O
notes: cyclo(-P1..P8-template-)
**Q.** For B4, which Ki [7] is on record?
**A.** Its Ki is 6 µM.

B5: Ex. 26 (peptide)
peptide: cyclo([Cha]EWLAWE[Cha][dP]P)
SMILES: CC(C)C[C@@H]1NC(=O)[C@H](Cc2c[nH]c3ccccc23)NC(=O)[C@H](CCC(=O)O)NC(=O)[C@H](CC2CCCCC2)NC(=O)[C@@H]2CCCN2C(=O)[C@H]2CCCN2C(=O)[C@H](CC2CCCCC2)NC(=O)[C@H](CCC(=O)O)NC(=O)[C@H](Cc2c[nH]c3ccccc23)NC(=O)[C@H](C)NC1=O
notes: cyclo(-P1..P8-template-)
**Q.** For B5, which Ki [7] is on record?
**A.** Its Ki is 7.7 µM.

B6: Ex. 3 (peptide)
peptide: cyclo(FEWLAWEW[dP][Oic])
SMILES: CC(C)C[C@@H]1NC(=O)[C@H](Cc2c[nH]c3ccccc23)NC(=O)[C@H](CCC(=O)O)NC(=O)[C@H](Cc2ccccc2)NC(=O)[C@@H]2C[C@@H]3CCCC[C@@H]3N2C(=O)[C@H]2CCCN2C(=O)[C@H](Cc2c[nH]c3ccccc23)NC(=O)[C@H](CCC(=O)O)NC(=O)[C@H](Cc2c[nH]c3ccccc23)NC(=O)[C@H](C)NC1=O
notes: cyclo(-P1..P8-template-)
**Q.** For B6, which Ki [7] is on record?
**A.** Its Ki is 6.2 µM.

B7: Ex. 4 (peptide)
peptide: cyclo(FEWL[dA]WEF[dP]P)
SMILES: CC(C)C[C@@H]1NC(=O)[C@H](Cc2c[nH]c3ccccc23)NC(=O)[C@H](CCC(=O)O)NC(=O)[C@H](Cc2ccccc2)NC(=O)[C@@H]2CCCN2C(=O)[C@H]2CCCN2C(=O)[C@H](Cc2ccccc2)NC(=O)[C@H](CCC(=O)O)NC(=O)[C@H](Cc2c[nH]c3ccccc23)NC(=O)[C@@H](C)NC1=O
notes: cyclo(-P1..P8-template-)
**Q.** With B7 as the molecule, how does the Ki [7] read?
**A.** The Ki was 15 µM.

B8: Ex. 6 (peptide)
peptide: cyclo(FE[Trp(6-Cl)]LA[Gly(octyl)]EF[dP]P)
SMILES: CCCCCCCC[C@@H]1NC(=O)[C@H](C)NC(=O)[C@H](CC(C)C)NC(=O)[C@H](Cc2c[nH]c3cc(Cl)ccc23)NC(=O)[C@H](CCC(=O)O)NC(=O)[C@H](Cc2ccccc2)NC(=O)[C@@H]2CCCN2C(=O)[C@H]2CCCN2C(=O)[C@H](Cc2ccccc2)NC(=O)[C@H](CCC(=O)O)NC1=O
notes: cyclo(-P1..P8-template-)
**Q.** For B8, which Ki [7] is on record?
**A.** The Ki was 3.6 µM.
